Experiments:
[1] = molecular target: T1, F508delCFTR cell surface expression in CFBE41o-F508delCFTR-HRP cells (Homo sapiens, UniProt P13569, DEL508-508); assay: Cell Surface Expression-Horse Radish Peroxidase (CSE-HRP) Assay; format: cell-based; conditions: for EC50: CFBE41o-F508delCFTR-HRP cells, 18-24 hours at 33° C., 8-point curve, highest concentration 20 μM; for Maximum % activity (%): maximum at any tested concentration, normalized to on-plate positive control (3 μM)
T1 construct: fused on or other part: Horseradish peroxidase (HRP) reporter inserted in the fourth exofacial (extracellular) loop of CFTR; expression is doxycycline-inducible
Procedure, shortened: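 CFBE41o- cells with HRP-tagged F508delCFTR, expression induced by 0.5 μg/mL doxycycline for 72 h at 37 °C, then compound for 18-24 h at 33 °C (8-point, 3-fold, top 20 μM). Surface HRP measured by luminol luminescence; % activity normalised to 3 μM positive-control corrector; EC50 from variable-slope sigmoidal fit, three replicate plates.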

[2] = molecular target: T2, F508delCFTR in primary hBE cells with F508del/F508del CFTR mutation (Homo sapiens, UniProt P13569, DEL508-508); assay: Transepithelial Clamp Circuit on Human Bronchial Epithelial Cells Conductance Assay (hBE-TECC); format: cell-based; conditions: for EC50: primary hBE cells F508del/F508del, 18-24 hours at 37° C., equivalent short circuit current, 6 concentrations
T2 construct: cells isolated from CF patients with the homozygous mutation; endogenous in cells; host or cells: primary human bronchial epithelial (hBE) cells from F508del/F508del CF patients
Procedure, shortened: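 Primary F508del/F508del hBE cells grown 35 days at air-liquid interface, treated basolaterally with correctors 18-24 h at 37° C. Ieq (Vt/Rt) at 36.5° C, pH 7.4, after benzamil, forskolin 10 μM, control potentiator, bumetanide; 6 concentrations normalized to DMSO and 3 μM positive-control corrector, EC50 by 4-parameter fit.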

[3] = relative to positive control (3 μM) coupled with control potentiator

T1 sequence (P13569 with tags, fused parts or gaps DEL508-508 limits assumed): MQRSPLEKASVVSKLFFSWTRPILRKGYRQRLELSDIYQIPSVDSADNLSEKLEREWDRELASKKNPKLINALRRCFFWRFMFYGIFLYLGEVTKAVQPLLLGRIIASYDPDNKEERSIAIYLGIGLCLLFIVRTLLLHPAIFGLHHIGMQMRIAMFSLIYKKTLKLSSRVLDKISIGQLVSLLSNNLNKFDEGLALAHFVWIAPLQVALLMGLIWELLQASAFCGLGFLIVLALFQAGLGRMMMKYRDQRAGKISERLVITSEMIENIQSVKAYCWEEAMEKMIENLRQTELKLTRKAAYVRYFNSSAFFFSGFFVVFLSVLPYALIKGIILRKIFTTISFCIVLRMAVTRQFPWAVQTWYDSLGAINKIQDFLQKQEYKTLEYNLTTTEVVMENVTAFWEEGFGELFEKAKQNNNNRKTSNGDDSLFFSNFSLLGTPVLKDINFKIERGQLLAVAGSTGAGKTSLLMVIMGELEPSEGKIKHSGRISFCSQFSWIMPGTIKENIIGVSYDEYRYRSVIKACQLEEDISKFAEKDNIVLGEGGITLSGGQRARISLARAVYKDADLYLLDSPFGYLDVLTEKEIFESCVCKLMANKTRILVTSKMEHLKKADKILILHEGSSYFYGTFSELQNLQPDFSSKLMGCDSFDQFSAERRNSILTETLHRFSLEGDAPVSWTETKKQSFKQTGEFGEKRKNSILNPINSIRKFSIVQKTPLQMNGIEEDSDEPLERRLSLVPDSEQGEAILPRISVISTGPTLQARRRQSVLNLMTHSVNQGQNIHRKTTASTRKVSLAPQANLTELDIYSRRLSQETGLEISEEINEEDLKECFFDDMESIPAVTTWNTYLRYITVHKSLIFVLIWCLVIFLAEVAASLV
T1 sequence (P13569 919-1480 limits assumed, stated change not applied): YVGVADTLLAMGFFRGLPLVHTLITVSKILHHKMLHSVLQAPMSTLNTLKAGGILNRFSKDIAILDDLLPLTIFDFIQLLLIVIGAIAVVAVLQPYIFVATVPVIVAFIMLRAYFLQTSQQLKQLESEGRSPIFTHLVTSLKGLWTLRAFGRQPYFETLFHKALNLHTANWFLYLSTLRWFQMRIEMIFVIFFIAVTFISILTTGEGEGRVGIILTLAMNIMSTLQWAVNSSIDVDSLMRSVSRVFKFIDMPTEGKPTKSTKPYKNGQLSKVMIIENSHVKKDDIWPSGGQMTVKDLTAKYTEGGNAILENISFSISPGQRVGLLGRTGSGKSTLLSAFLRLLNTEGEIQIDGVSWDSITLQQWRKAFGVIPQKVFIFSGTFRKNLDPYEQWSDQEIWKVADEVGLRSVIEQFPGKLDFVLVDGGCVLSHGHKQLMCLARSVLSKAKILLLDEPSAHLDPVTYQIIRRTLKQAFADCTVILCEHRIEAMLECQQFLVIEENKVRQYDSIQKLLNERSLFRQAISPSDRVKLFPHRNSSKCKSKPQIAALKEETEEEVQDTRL
T2 sequence (P13569 with tags, fused parts or gaps DEL508-508): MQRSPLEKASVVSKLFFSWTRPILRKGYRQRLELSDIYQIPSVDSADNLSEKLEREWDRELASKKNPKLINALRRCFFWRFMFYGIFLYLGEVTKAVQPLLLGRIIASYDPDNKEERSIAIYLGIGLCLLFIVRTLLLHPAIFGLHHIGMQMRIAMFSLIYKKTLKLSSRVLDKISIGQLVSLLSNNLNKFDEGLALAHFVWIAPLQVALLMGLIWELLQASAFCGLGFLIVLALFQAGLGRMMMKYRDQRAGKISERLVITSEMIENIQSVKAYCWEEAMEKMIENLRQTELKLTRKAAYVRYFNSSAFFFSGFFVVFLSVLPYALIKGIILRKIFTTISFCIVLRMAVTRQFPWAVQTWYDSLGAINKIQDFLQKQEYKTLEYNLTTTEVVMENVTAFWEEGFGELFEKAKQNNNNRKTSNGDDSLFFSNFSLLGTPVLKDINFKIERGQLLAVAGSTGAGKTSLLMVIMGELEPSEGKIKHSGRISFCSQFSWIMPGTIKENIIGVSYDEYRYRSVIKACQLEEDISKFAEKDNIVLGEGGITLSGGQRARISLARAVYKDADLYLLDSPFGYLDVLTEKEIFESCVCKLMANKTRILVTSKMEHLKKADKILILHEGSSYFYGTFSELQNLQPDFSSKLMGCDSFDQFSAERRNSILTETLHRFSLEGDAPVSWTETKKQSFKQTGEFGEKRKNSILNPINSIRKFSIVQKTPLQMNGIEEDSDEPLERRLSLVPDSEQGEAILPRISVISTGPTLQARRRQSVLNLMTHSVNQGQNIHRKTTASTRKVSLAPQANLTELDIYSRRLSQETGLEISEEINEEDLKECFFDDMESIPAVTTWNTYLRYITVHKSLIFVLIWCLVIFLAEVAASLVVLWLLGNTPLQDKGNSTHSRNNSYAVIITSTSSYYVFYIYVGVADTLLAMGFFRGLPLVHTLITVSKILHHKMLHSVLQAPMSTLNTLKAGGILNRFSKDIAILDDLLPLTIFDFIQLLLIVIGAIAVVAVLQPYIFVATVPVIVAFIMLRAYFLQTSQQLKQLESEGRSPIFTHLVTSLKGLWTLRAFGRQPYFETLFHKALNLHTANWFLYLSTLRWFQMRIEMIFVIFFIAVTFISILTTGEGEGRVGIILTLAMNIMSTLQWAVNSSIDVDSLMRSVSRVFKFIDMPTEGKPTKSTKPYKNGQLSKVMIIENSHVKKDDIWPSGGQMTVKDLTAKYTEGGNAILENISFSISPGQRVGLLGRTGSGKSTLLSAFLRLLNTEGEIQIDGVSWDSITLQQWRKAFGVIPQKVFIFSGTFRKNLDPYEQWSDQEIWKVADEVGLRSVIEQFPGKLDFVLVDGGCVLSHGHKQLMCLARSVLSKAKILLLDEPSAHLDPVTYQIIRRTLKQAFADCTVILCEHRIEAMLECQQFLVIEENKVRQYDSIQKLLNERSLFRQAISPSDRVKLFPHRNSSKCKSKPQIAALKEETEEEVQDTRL

COc1ccc2c(c1)O[C@@H](c1ccc(C(=O)O)cc1)C[C@H]2NC(=O)[C@]1(C)CCc2c1ccc1c2OCO1 [Example 46, 4-[(2R,4R)-7-methoxy-4-{[(6R)-6-methyl-7,8-dihydro-2H,6H-indeno[4,5-d][1,3]dioxole-6-carbonyl]amino}-3,4-dihydro-2H-1-benzopyran-2-yl]benzoic acid]
EC50 [1]: 430 nM | Maximum % activity (%) [1]: 142% | EC50 [2]: 220 nM | Maximum % activity (%) [2, 3]: 105%

CCCN(CCO)C(=O)[C@H]1CC[C@H]([C@H]2C[C@@H](NC(=O)[C@@]3(C)COc4cc5c(cc43)OC(F)(F)O5)c3ccc(OC(F)(F)F)cc3O2)CC1 [Example 263, (7R)-2,2-difluoro-N-[(2R,4R)-2-{trans-4-[(2-hydroxyethyl)(propyl)carbamoyl]cyclohexyl}-7-(trifluoromethoxy)-3,4-dihydro-2H-1-benzopyran-4-yl]-7-methyl-6,7-dihydro-2H-furo[2,3-f][1,3]benzodioxole-7-carboxamide]
EC50 [1]: 70 nM | Maximum % activity (%) [1]: 167% | EC50 [2]: 4 nM | Maximum % activity (%) [2, 3]: 118%

C[C@]1(C(=O)N[C@H]2C[C@@H](c3ccccc3)O[C@@H](c3ccc(C(=O)O)cc3)C2)COc2cc3c(cc21)OC(F)(F)O3 (single isomer, unassigned) [Example 44]
EC50 [1]: 930 nM | Maximum % activity (%) [1]: 114% | EC50 [2]: 246 nM | Maximum % activity (%) [2, 3]: 83%

COc1ccc2c(c1)O[C@@H](c1ccc(C(=O)NCC(C)(C)O)cn1)C[C@H]2NC(=O)[C@@]1(C)COc2cc3c(cc21)OC(F)(F)O3 [Example 214, 6-[(2R,4R)-4-{[(7R)-2,2-difluoro-7-methyl-6,7-dihydro-2H-furo[2,3-f][1,3]benzodioxole-7-carbonyl]amino}-7-methoxy-3,4-dihydro-2H-1-benzopyran-2-yl]-N-(2-hydroxy-2-methylpropyl)pyridine-3-carboxamide]
EC50 [1]: 60 nM | Maximum % activity (%) [1]: 114% | EC50 [2]: 16 nM | Maximum % activity (%) [2, 3]: 88%

CC(C)(CO)c1nc2cc(NC(=O)[C@@]3(C)COc4cc5c(cc43)OC(F)(F)O5)c(F)cc2n1C[C@@H](O)CO [Example 137, (7R)—N-{1-[(2R)-2,3-dihydroxypropyl]-6-fluoro-2-(1-hydroxy-2-methylpropan-2-yl)-1H-benzimidazol-5-yl}-2,2-difluoro-7-methyl-6,7-dihydro-2H-furo[2,3-f][1,3]benzodioxole-7-carboxamide]
EC50 [1]: 2060 nM | Maximum % activity (%) [1]: 72% | EC50 [2]: 2580 nM | Maximum % activity (%) [2, 3]: 67%

C[C@]1(C(=O)Nc2cc(-c3ccccc3)nn(C[C@@H](O)CO)c2=O)COc2cc3c(cc21)OC(F)(F)O3 [Example 27, (7R)—N-{2-[(2R)-2,3-dihydroxypropyl]-3-oxo-6-phenyl-2,3-dihydropyridazin-4-yl}-2,2-difluoro-7-methyl-6,7-dihydro-2H-furo[2,3-f][1,3]benzodioxole-7-carboxamide]
EC50 [1]: 810 nM | Maximum % activity (%) [1]: 82% | Maximum % activity (%) ([2]; testing concentration 3 μM): 54%

C[C@]1(C(=O)Nc2cc(C3CC3)nn(-c3ccc(C(=O)O)cc3)c2=O)COc2cc3c(cc21)OC(F)(F)O3 [Example 32, 4-[3-cyclopropyl-5-{[(7R)-2,2-difluoro-7-methyl-6,7-dihydro-2H-furo[2,3-f][1,3]benzodioxole-7-carbonyl]amino}-6-oxopyridazin-1(6H)-yl]benzoic acid]
EC50 [1]: 880 nM | Maximum % activity (%) [1]: 144% | Maximum % activity (%) ([2]; testing concentration 3 μM): 51%

COc1ccc2c(c1)OC(c1ccc(OC[C@@H](O)CO)nn1)C[C@H]2NC(=O)[C@@]1(C)COc2cc3c(cc21)OC(F)(F)O3 (stereo partly drawn) [Example 252, (7R)—N-[(4R)-2-{6-[(2S)-2,3-dihydroxypropoxy]pyridazin-3-yl}-7-methoxy-3,4-dihydro-2H-1-benzopyran-4-yl]-2,2-difluoro-7-methyl-6,7-dihydro-2H-furo[2,3-f][1,3]benzodioxole-7-carboxamide]
EC50 [1]: 90 nM | Maximum % activity (%) [1]: 110% | EC50 [2]: 32 nM | Maximum % activity (%) [2, 3]: 106%

C[C@]1(C(=O)N[C@@H]2C[C@H]([C@H]3CC[C@H](C(=O)N4C[C@H](O)[C@@H](O)C4)CC3)Oc3cc(OC(F)(F)F)ccc32)COc2cc3c(cc21)OC(F)(F)O3 [Example 256, (7R)—N-[(2R,4R)-2-{trans-4-[(3S,4S)-3,4-dihydroxypyrrolidine-1-carbonyl]cyclohexyl}-7-(trifluoromethoxy)-3,4-dihydro-2H-1-benzopyran-4-yl]-2,2-difluoro-7-methyl-6,7-dihydro-2H-furo[2,3-f][1,3]benzodioxole-7-carboxamide]
EC50 [1]: 60 nM | Maximum % activity (%) [1]: 168% | EC50 [2]: 10 nM | Maximum % activity (%) [2, 3]: 106%

CC(C)(CO)c1cc2cc(NC(=O)[C@@]3(C)COc4cc5c(cc43)OC(F)(F)O5)c(F)cc2n1C[C@@H](O)CO [Example 130, (7R)—N-{1-[(2R)-2,3-dihydroxypropyl]-6-fluoro-2-(1-hydroxy-2-methylpropan-2-yl)-1H-indol-5-yl}-2,2-difluoro-7-methyl-6,7-dihydro-2H-furo[2,3-f][1,3]benzodioxole-7-carboxamide]
EC50 [1]: 390 nM | Maximum % activity (%) [1]: 105% | EC50 [2]: 67 nM | Maximum % activity (%) [2, 3]: 72%

COc1ccc2c(c1)O[C@@H](c1ccc(C(=O)N3C[C@@H](O)[C@H](O)C3)cn1)C[C@H]2NC(=O)[C@@]1(C)COc2cc3c(cc21)OC(F)(F)O3 [Example 248, (7R)—N-[(2R,4R)-2-{5-[(3R,4R)-3,4-dihydroxypyrrolidine-1-carbonyl]pyridin-2-yl}-7-methoxy-3,4-dihydro-2H-1-benzopyran-4-yl]-2,2-difluoro-7-methyl-6,7-dihydro-2H-furo[2,3-f][1,3]benzodioxole-7-carboxamide]
EC50 [1]: 90 nM | Maximum % activity (%) [1]: 116% | EC50 [2]: 32 nM | Maximum % activity (%) [2, 3]: 105%

CC1(C(=O)N[C@@H]2C[C@H](c3cccc(C(=O)O)c3)Oc3ccccc32)COc2cc3c(cc21)OC(F)(F)O3 (stereo partly drawn) [Example 21, 3-{(2R,4R)-4-[(2,2-difluoro-7-methyl-6,7-dihydro-2H-furo[2,3-f][1,3]benzodioxole-7-carbonyl)amino]-3,4-dihydro-2H-1-benzopyran-2-yl}benzoic acid]
EC50 [1]: 1260 nM | Maximum % activity (%) [1]: 162% | EC50 [2]: 468 nM | Maximum % activity (%) [2, 3]: 94%

COc1ccc2c(c1)O[C@@H](c1ccc(C(=O)NCC(O)CO)cn1)C[C@H]2NC(=O)[C@@]1(C)COc2cc3c(cc21)OC(F)(F)O3 (stereo partly drawn) [Example 243, 6-[(2R,4R)-4-{[(7R)-2,2-difluoro-7-methyl-6,7-dihydro-2H-furo[2,3-f][1,3]benzodioxole-7-carbonyl]amino}-7-methoxy-3,4-dihydro-2H-1-benzopyran-2-yl]-N-(2,3-dihydroxypropyl)pyridine-3-carboxamide]
EC50 [1]: 70 nM | Maximum % activity (%) [1]: 112% | EC50 [2]: 21 nM | Maximum % activity (%) [2, 3]: 87%

C[C@]1(C(=O)Nc2ccc(Cl)c(-c3cccc(C(=O)O)c3)n2)COc2cc3c(cc21)OC(F)(F)O3 [Example 95, 3-(3-chloro-6-{[(7R)-2,2-difluoro-7-methyl-6,7-dihydro-2H-furo[2,3-f][1,3]benzodioxole-7-carbonyl]amino}pyridin-2-yl)benzoic acid]
EC50 [1]: 590 nM | Maximum % activity (%) [1]: 167% | Maximum % activity (%) ([2]; testing concentration 1 μM): 50%

CC1(C)COC(C)(C)c2c1n(C[C@@H](O)CO)c1cc(F)c(NC(=O)[C@@]3(C)COc4cc5c(cc43)OC(F)(F)O5)cc21 [Example 206, (7R)—N-{5-[(2R)-2,3-dihydroxypropyl]-7-fluoro-1,1,4,4-tetramethyl-1,3,4,5-tetrahydropyrano[4,3-b]indol-8-yl}-2,2-difluoro-7-methyl-6,7-dihydro-2H-furo[2,3-f][1,3]benzodioxole-7-carboxamide]
EC50 [1]: 1950 nM | Maximum % activity (%) [1]: 84% | EC50 [2]: 1030 nM | Maximum % activity (%) [2, 3]: 79%

Reference: patent publication US9840513B2 (AbbVie S.à.r.l., priority 2015, dated 2017)
